The source of these data is EPA's ToxValDB 9.5.

“And” between values parts separate entries of the source, which are not always exact repeats. Equal values may be shown once.

Data set [1] concerns Mus musculus. To be noted: uterotrophic, Active.
Data set [2] concerns Rattus norvegicus. Particulars: uterotrophic, Active.
In data set [3] the test system is Rattus norvegicus. To be noted: subchronic, oral, gavage.
For data set [4], the system named is Rattus norvegicus. Particulars: for LD50 / LC50: acute.
Another data set relates to Oryctolagus sp. To be noted: acute.
Data set [5] relates to Mus musculus. To be noted: for LD50: acute.
The test system of data set [6] is Rattus norvegicus. To be noted: subchronic; oral; drinking water; M/F; impaired renal function and increased liver and kidney weight.
Where [7] appears, read: duration: 1 days, injection, intraperitoneal.
The mark [8] stands for this setting: duration: 3 days, injection, intraperitoneal.
Setting [9] is: subchronic, duration: 12 weeks, Inhalation, Long-Evans.
The mark [10] stands for this setting: reproduction developmental, oral, gavage, F, Sprague-Dawley.
[11] abbreviates: short-term, duration: 27 days, oral, gavage, Sprague-Dawley.

Consider `Oc1ccc(C(c2ccc(O)cc2)C(Cl)(Cl)Cl)cc1` [2,2-Bis(4-hydroxyphenyl)-1,1,1-trichloroethane], for which, in the data set with Mus musculus [1] (duration: 3 days, injection, subcutaneous), the LEL was found to be 100 mg/kg-day.
With `CC/C(=C(/CC)c1ccc(O)cc1)c1ccc(O)cc1` [Diethylstilbestrol], the LEL is 0.05 mg in the data set on Rattus norvegicus [2] (duration: 0 days, injection, intraperitoneal); 0.5 mg/L in the data set with Rattus norvegicus [2] (duration: 1 days, dermal); 0.01 mg/kg-day in the data set with Rattus norvegicus [2] (setting [7]); 0.01 mg/kg-day in the data set with Rattus norvegicus [2] (setting [8]); 0.01 mg/day in the data set with Rattus norvegicus [2] (duration: 4 days, injection, subcutaneous); 0.005 ppm and 0.01 ppm in the data set on Rattus norvegicus [2] (duration: 4 days, oral, diet). Besides, the LEL with Rattus norvegicus [2] (duration: 7 days, oral) came to 0.0009 mg/kg-day; in the data set with Rattus norvegicus [2] (duration: 8 days, injection, intraperitoneal), 0.01 mg/kg-day; with Mus musculus [1] (setting [7]), 0.0005 mg/kg-day; with Mus musculus [1] (duration: 1 days, injection, subcutaneous) it was 0.00045 mg/animal; in the data set on Mus musculus [1] (duration: 1.2 days, injection, subcutaneous), 0.00045 mg/animal; in the data set with Mus musculus [1] (setting [8]), 0.1 mg/kg-day. In addition, the LEL in the data set on Mus musculus [1] (duration: 3 days, oral) is 0.02 mg/kg-day; in the data set on Mus musculus [1] (duration: 4 days, oral), 0.0006 mg/day; with Mus musculus [1] (duration: 5 days, oral, diet), 0.004 ppm; in the data set with Mus musculus [1] (duration: 6 days, oral, diet) it was 3.6e-05 mg and 5e-05 mg/day; in the data set on Mus musculus [1] (duration: 9 days, injection, subcutaneous), 0.5 mg/kg-day; in the data set with Mus musculus [1] (duration: 9 days, oral, diet) it was 0.004 ppm. The LEL with Mus musculus [1] (duration: 10 days, injection, subcutaneous) amounted to 0.0001 mg/day; with Mus musculus [1] (duration: 11 days, oral, diet) it was 0.004 ppm; with Mus musculus [1] (duration: 42 days, injection, subcutaneous), 0.01 mg/kg-day; in the data set with Mus musculus [1] (oral) it was 0.002 mg/kg-day.
Regarding `COc1ccc(-c2coc3cc(O)cc(O)c3c2=O)cc1` [Biochanin A], the LEL in the data set on Mus musculus [1] (duration: 4 days, oral, diet) worked out at 2.5 mg/day.
In general, LD50 refers to the dose expected to kill half of the subjects tested. Read a low LD50 as greater toxicity. For orientation: NOAEL means the highest dose or exposure tested at which no adverse effect was seen. With `Cc1cc(C)c(O)c(C)c1` [2,4,6-Trimethylphenol], in the data set on Rattus norvegicus [3] (M, Sprague-Dawley, Clinical Observation: Salivation + Histopathology: Stomach/forestomach- Squamous cell metaplasia Stomach/forestomach- Edema Stomach/…), the NOEL came out at 10 mg/kg-day. For the same compound, the LD50 is over 2000 mg/kg in the data set with Rattus norvegicus [4] (oral, gavage) and over 2000 mg/kg in the data set on Oryctolagus sp. (dermal, New Zealand). Also, the no observed adverse effect level (NOAEL) with Rattus norvegicus [4] (reproduction developmental, duration: 4 weeks, oral, gavage, F, Sprague-Dawley) is at least 200 mg/kg-day; in the data set on Rattus norvegicus [4] (reproduction developmental, duration: 4 weeks, oral, gavage, Sprague-Dawley, generation: F0), at least 200 mg/kg-day; with Rattus norvegicus [4] (reproduction developmental, duration: 4 weeks, oral, gavage, Sprague-Dawley, generation: F1) it was at least 200 mg/kg-day.
For `CC(C)(c1cc(Cl)c(O)c(Cl)c1)c1cc(Cl)c(O)c(Cl)c1` [2,2',6,6'-Tetrachlorobisphenol A], the LEL in the data set on Mus musculus [1] (setting [8]) came out at 20 mg/kg-day.
As to `c1ccc2sc(SSc3nc4ccccc4s3)nc2c1` [2,2'-Dithiobisbenzothiazole], the LD50 with Rattus norvegicus [4] (injection, Intraperitoneal) was 3000 mg/kg and 2600 mg/kg; in the data set with Oryctolagus sp. (oral), 6200 mg/kg; in the data set with Mus musculus [5] (injection, Intraperitoneal) it was 2250 mg/kg; in the data set with Mus musculus [5] (injection, intravenous), 180 mg/kg. Further, the “NOAEL (% diet)” value in the data set with Rattus norvegicus [4] (developmental, duration: 22 days, oral, diet, Wistar) came out at 1; with Rattus norvegicus [4] (reproduction developmental, duration: 22 days, oral, diet, F, Wistar) it was 0.2. Also, the NOAEL was found to be 10 mg/kg-day in the data set on Rattus norvegicus [4] (reproduction developmental, oral, Wistar, hybrid, generation: F1); 127 mg/kg-day in the data set on Rattus norvegicus [4] (short-term, duration: 22 days, oral, diet, F, Wistar); 10 mg/kg-day in the data set with Mus musculus [5] (developmental, oral, N strain).
A word on the LOAEL: it is the lowest tested level that showed an adverse finding. Consider `C=CCO` [Allyl alcohol], for which the NOEL in the data set with Rattus norvegicus [3] (F, Fischer 344, Hematology: Plt increase + Blood Chemistry: BUN increase25 Bile acid increase + Absolute Organ Weight: Liver increase + Relative Organ …) was determined as 1.5 mg/kg-day; in the data set with Rattus norvegicus [3] (M, Fischer 344, Hematology: Plt increase + Blood Chemistry: BUN increase25 Bile acid increase + Absolute Organ Weight: Liver increase + Relative Organ …), 3 mg/kg-day; with Rattus norvegicus [6], 4.8 mg/kg-day. For the same compound, the LC50 is ≥ 297 mg/m3 and ≤ 333 mg/m3 in the data set on Rattus norvegicus [4] (inhalation, Long-Evans); 594 mg/m3 with Rattus norvegicus [4] (inhalation, Sherman Wistar). The LD50 in the data set with Rattus norvegicus [4] (oral, Sherman Wistar) is 64 mg/kg; in the data set with Rattus norvegicus [4] (oral, gavage, Long-Evans) it was ≥ 99 mg/kg and ≤ 105 mg/kg; in the data set with Rattus norvegicus [4] (oral, gavage, Osborne-Mendel), 70 mg/kg; with Oryctolagus sp. (dermal) it was 89 mg/kg; in the data set on Mus musculus [5] (oral, gavage, Swiss-Webster), 96 mg/kg. In addition, the NOAEL with Rattus norvegicus [4] (chronic, duration: 15 weeks, oral, drinking water, Wistar) amounted to 11.2 mg/kg-day; in the data set on Rattus norvegicus [4] (setting [9]), 47.5 mg/m3. Further, the LOAEL in the data set on Rattus norvegicus [4] (setting [9]) is 95 mg/m3; in the data set on Rattus norvegicus [6] it was 6.9 mg/kg-day.
As for `CCCCCCC(=O)O` [Heptanoic acid], the LC50 in the data set on Rattus norvegicus [4] (Inhalation, Sprague-Dawley) is over 4.6 µg/mL. Also, the LD50 with Rattus norvegicus [4] (oral) was 8370 mg/kg; with Oryctolagus sp. (dermal, albino), at least 2000 mg/kg. Also, the NOAEL with Rattus norvegicus [4] (developmental, duration: 9 days, oral, gavage, Sprague-Dawley) is 1000 mg/kg-day; in the data set on Rattus norvegicus [4] (reproduction developmental, duration: 9 days, oral, gavage, F, Sprague-Dawley), 1000 mg/kg-day; in the data set with Rattus norvegicus [4] (setting [10]), under 200 mg/kg-day; in the data set on Rattus norvegicus [4] (reproduction developmental, oral, gavage, Sprague-Dawley, generation: F1), ≥ 1000 mg/kg-day and ≤ 2000 mg/kg-day; in the data set on Rattus norvegicus [4] (setting [11]), 1750 mg/kg-day; with Mus musculus [5] (chronic, duration: 80 weeks, dermal, C3H/HeCr), 50 mg. Also, the figures for the LOAEL in the data set on Rattus norvegicus [4] (setting [10]) and with Rattus norvegicus [4] (setting [11]) were over 1000 mg/kg-day and 3500 mg/kg-day, respectively.
